Test [1] deals with T1, obelin (apo-obelin; obelin-v when charged with CTZ-v) (Obelia longissima, UniProt Q27709).
T1 construct: Ca2+-discharged form; two molecules per asymmetric unit
T1 sequence (Q27709 1-195): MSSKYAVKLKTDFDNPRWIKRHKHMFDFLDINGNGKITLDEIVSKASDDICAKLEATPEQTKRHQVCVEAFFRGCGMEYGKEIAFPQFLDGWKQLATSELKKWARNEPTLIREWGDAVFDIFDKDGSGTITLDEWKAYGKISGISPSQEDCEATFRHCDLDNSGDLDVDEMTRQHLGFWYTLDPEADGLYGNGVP
Nature of the test: charging of apo-obelin, Ca2+ discharge, then fluorescence and structure of discharged protein. It is filed as biochemical. The note with it: O2, Ca2+; charging overnight with twofold molar excess in 5 mM EDTA, 10 mM DTT, 20 mM Tris-HCl pH 7.2, 4 °C.

The target of test [2] is T1, obelin (apo-obelin; obelin-v when charged with CTZ-v). Nature of the test: charging of apo-obelin, Ca2+ discharge, then fluorescence of discharged protein. The class given is biochemical. To be noted: O2, Ca2+; charging overnight with twofold molar excess in 5 mM EDTA, 10 mM DTT, 20 mM Tris-HCl pH 7.2, 4 °C.

Results on 2 molecules are retold here after article PMC9666459, “Crystal structure of semi-synthetic obelin-v after calcium induced bioluminescence implies coelenteramine as the main reaction product” (Scientific Reports, 2022).

On to `O=c1c(Cc2ccc(O)cc2)nc2c(Cc3ccccc3)[nH]c3c4ccc(O)cc4ccc3n1-2` [CTZ-v], for which the “charging of apo-obelin, Ca2+ discharge, then fluorescence and structure of disch” value in test [1] is on record as “apo-obelin was incubated overnight with a twofold molar excess of CTZ or CTZ-v”. Consider `Oc1ccc(Cc2nc3c(Cc4ccccc4)nc(-c4ccc(O)cc4)cn3c2O)cc1` [CTZ], for which the “charging of apo-obelin, Ca2+ discharge, then fluorescence of discharged protein” value in test [2] is given as “apo-obelin was incubated overnight with a twofold molar excess of CTZ or CTZ-v”.
